PMC9227536, “Prediction of Pharmacokinetics of IDP-73152 in Humans Using Physiologically-Based Pharmacokinetics” (Pharmaceutics, 2022)
Where two headings read alike, the source gives them in different places.

How the values were obtained:
[1] = PK study in dogs (intravenous and oral); assay type: in vivo
Protocol: The in vivo experimental protocol was approved by the Institutional Animal Care and Use Committee of Research Laboratory at Ildong pharmaceutical Co., Ltd. (Ref. No.: IDL-PDF-001 and 09005-11004). Animals were acclimatized to the laboratory conditions for at least 1 week before the experiments and were kept in the standardized conditions (20–25 °C, 55 ± 5% humidity, and a 12 h light/dark cycle). The animals fasted overnight prior to drug administration, and food was resupplied 4 h post-dose.
Male beagle dogs (body weight 9.55–10.3 kg, Beijing Marshall Biotechnology, Beijing, China) received a single intravenous dose of 10 mg/kg IDP-73152 via the cephalic vein (i.e., the injection volume of 1 mL/kg, IDP-73152 in saline). When necessary, a single dose of IDP-73152 at 20 mg/kg was also orally administered to dogs in the form of hard gelatin capsules. Blood samples were collected from the jugular vein at 0.167, 0.33, 0.5, 1, 2, 4, and 8 h (for intravenous administration study), and 0.167, 0.33, 0.5, 1, 2, 4, 6, and 8 h (for oral administration study) after the administration. Plasma was separated/collected from the blood sample by centrifugation for 5 min at 10,000× g/4 °C and stored at −80 °C until the analysis.
When necessary for a model independent PK analysis, a standard moment analysis was carried out with WinNonlin software using either representative (for the study with mice) or individual (for the study with rats, dogs, and humans) concentration–time profile(s). For the calculation of PBPK models, Berkeley Madonna 8.3.18 (Albany, CA, USA) was used with the fourth-order Runge–Kutta method for numerical integration.

[2] = Biliary and renal excretion in bile duct-cannulated rats; assay type: in vivo; details: intravenous 5 mg/kg, up to 8 h
Protocol: Male Sprague Dawley rats (Orient Bio Inc., Seongnam, Korea), weighing 194.7 g to 205.4 g, were used in this study. IDP-73152 was administered to rats at a single dose of 2.5, 5, or 10 mg/kg via tail vein injection (the injection volume fixed at 2 mL/kg in saline). […] Blood samples (100 μL) were collected from the jugular vein at 0.167, 0.33, 0.5, 1, 2, 4, and 8 h after the administration. Plasma was separated/collected by centrifugation of the blood samples for 5 min at 10,000× g/4 °C and stored at −80 °C until analysis. When necessary, the biliary and renal excretion of IDP-73152 were studied in bile duct-cannulated rats after the intravenous injection (5 mg/kg) to investigate its route(s) of excretion in rats. Bile and urine samples were collected up to 8 h (i.e., approximately 5 times of the terminal phase half-life) after the administration and the samples were stored at −80 °C until the analysis. The cumulative excretion of the bile and the urine to infinite time was determined by assuming that the excretion was practically completed by the last collection time.

[3] = male, beagle, dog, plasma, dogs, oral 20 mg/kg, hard gelatin capsules

SMILES: CC(C)(C)[C@H](NC(=O)[C@H](CC1CCCC1)CN(O)C=O)C(=O)N1CCC(NCc2cc(F)c(F)cc2F)CC1 [IDP-73152]
- CLp ([1]; dogs, intravenous 10 mg/kg, 10 mg/kg): 11.1 ± 4.32 mL/min/kg
- AUC(0-inf) ([1]; male, beagle, dog, plasma, iv, 10 mg/kg): 16600 ± 5900 ng·h/mL
- clearance ([1]; male, beagle, dog, plasma, iv, 10 mg/kg, dogs, intravenous 10 mg/kg, read-out: CLp (converted)): 10.3 mL/min/kg
- Vd ([1]; male, beagle, dog, plasma, dogs, intravenous 10 mg/kg, moment analysis, read-out: Vss): 1.15 ± 0.46 L/kg
- half-life ([1]; male, beagle, dog, plasma, dogs, intravenous 10 mg/kg, read-out: t1/2 (converted)): 1.18 ± 0.14 h
- bioavailability ([1]; male, beagle, dog, plasma, dogs, oral 20 mg/kg vs intravenous 10 mg/kg, read-out: F (bioavailability)): 95.5%
- AUC(0-inf) [1, 3]: 31600 ± 5900 ng·h/mL
- Cmax [1, 3]: 10500 ± 2000 ng/mL
- Tmax [1, 3]: 0.777 ± 0.387 h
- half-life ([1]; male, beagle, dog, plasma, dogs, oral 20 mg/kg, hard gelatin capsules, read-out: t1/2 (terminal phase half-life) (converted)): 1.81 ± 0.04 h
- biliary recovery of intact drug [2]: 0.512 ± 0.154 % of the dose
- urinary recovery of intact drug [2]: 1.21 ± 0.48 % of the dose
